Data published in article PMC8082539 (ACS chemical biology, 2021).

Molecular target: T1, apocarotenoid oxygenase ACO from Synechocystis (Synechocystis sp. PCC 6803, UniProt P74334)
T1 sequence (P74334 1-490): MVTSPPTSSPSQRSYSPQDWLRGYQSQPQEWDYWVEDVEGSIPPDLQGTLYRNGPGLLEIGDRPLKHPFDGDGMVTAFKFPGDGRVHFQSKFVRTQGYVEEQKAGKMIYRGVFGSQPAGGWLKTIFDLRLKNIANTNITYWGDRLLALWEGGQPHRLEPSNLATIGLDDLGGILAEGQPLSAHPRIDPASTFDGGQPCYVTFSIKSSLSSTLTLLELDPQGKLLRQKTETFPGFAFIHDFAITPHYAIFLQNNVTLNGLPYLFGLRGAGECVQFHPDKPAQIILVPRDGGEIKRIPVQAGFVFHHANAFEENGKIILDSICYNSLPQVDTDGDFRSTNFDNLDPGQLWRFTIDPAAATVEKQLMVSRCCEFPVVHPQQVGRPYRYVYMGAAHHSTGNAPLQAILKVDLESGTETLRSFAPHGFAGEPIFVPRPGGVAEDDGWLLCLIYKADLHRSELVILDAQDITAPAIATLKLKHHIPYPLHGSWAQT
Experiment: HPLC at […] nm, UV-visible spectra
Type: biochemical
Details: product 3-hydroxy-retinal

SMILES: CC1=C(/C=C/C(C)=C/C=C/C(C)=C/C=C/C=C(\C)C=O)C(C)(C)C[C@H](O)C1 [3-hydroxy-β-apo-12’-carotenal]
- HPLC at 360 nm, UV-visible spectra: first incubated 3-hydroxy-β-apo-12’-carotenal with the bacterial ACO to produce 3-hydroxy-retinal
